Data taken from US7056679B2, “Target specific screening and its use for identifying target binders” (Antyra, Inc., priority 2001, dated 2006).

What was measured:
[1] = system: E-tag antibody; assay: ELISA analysis of phage on antibody raised against ETAG (positive control); details: peptide binding to E-tag antibody; phage ELISA units read at 405 nm
Procedure, shortened: (§1)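 Phage from picked clones (M13KO7 helper) bound 2 hr at room temperature to wells coated overnight at 4 °C with 500 ng/well anti-ETAG antibody or LDH, milk-blocked. Detection with HRP-anti-M13 (1:3000) and ABTS at 405 nm; positive when A405 ≥2-fold over background.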

[2] = target: T1, DGI-2 (Homo sapiens, UniProt Q15004); assay: ELISA analysis of phage on DGI-2 polypeptide (specific binding); details: for DGI-2 (OD): binding to DGI-2 polypeptide (specific binding), phage ELISA units read at 405 nm; for DGI-2/LDH (OD): ratio of specific binding to non-specific binding
T1 construct: encompassed the entire DGI-2 open reading frame (ORF); His-tag of vector pIVEX2.3-MCS (inferred from the vector and from the reverse primer lacking a stop codon); made in house; host or cells: cell-free in vitro translation (Rapid Translation System RTS, Roche; E. coli lysate)
T1 sequence (Q15004 1-111): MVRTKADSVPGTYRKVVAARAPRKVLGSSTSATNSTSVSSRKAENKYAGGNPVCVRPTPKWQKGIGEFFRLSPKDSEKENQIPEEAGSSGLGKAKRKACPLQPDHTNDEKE
Procedure, shortened: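 Recombinant DGI-2 from in vitro translation, LDH (non-specific) and controls were coated at 500 ng/well and blocked with 2% milk-PBS. Phage from individual clones bound for 2 hr at room temperature, then anti-M13-HRP with ABTS was read at 405 nm; a clone counted as positive at ≥2-fold over background.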

[3] = system: lactate dehydrogenase (LDH); assay: ELISA analysis of phage on LDH (irrelevant, non-specific target); type: binding; details: peptide binding to LDH polypeptide (non-specific binding); phage ELISA units read at 405 nm
Procedure, shortened: as §1

Substance | ETAG (OD) [1] [OD] | DGI-2 (OD) [2] [OD] | DGI-2/LDH (OD) [2] | LDH (OD) [3] [OD]
RTLFINGGCCGKGSGGGRPL (DGI-2-20F-PP-G1; listed as Escherichia coli) | 21.8 | 1.4 | 1.4 | 1.0
RVSYEMLGRRRRSMHGSSMR (DGI-2-20F-PP-A4; listed as Escherichia coli) | 6.6 | 2.7 | 2.6 | 1.1
RWSICRGLQYSIPGCAVEDLSDVMA (DGI-2-20C-4-H316; listed as Escherichia coli) | 7.2 | 3.8 | 3.9 | 1.0
RWSLPAYLCRFVSQASCNSR (DGI-2-20R-3-C12; listed as Escherichia coli) | 14.6 | 1.6 | 1.6 | 1.0
S#ARSLMTGVVAVCIVWRGP (SARSLMTGVVAVCIVWRGP; DGI-2-20F-PP-E8; listed as Escherichia coli) | 36.3 | 2.5 | 2.6 | 1.0
SAFGCPLPRALGGGGARFYA (DGI-2-20F-PP-E11; listed as Escherichia coli) | 15.2 | 2.0 | 2.2 | 0.9
SIILAGCVWVMPCGQNLGGV (DGI-2-20F-PP-C4; listed as Escherichia coli) | 36.1 | 3.0 | 3.2 | 0.9
SIVSSRSGWQRGWIAWEAPV (SIVSSRSGWQRGWIAWFAPV; DGI-2-20F-PP-E5; listed as Escherichia coli) | 30.4 | 2.7 | 2.7 | 1.0
SLECWAMPGMVVRLVGCDGP (DGI-2-20R-4-H112; listed as Escherichia coli) | 12.3 | 6.6 | 6.0 | 1.1
SLFERSARSRYHGSPDCNGS (DGI-2-20F-PP-A3; listed as Escherichia coli) | 12.9 | 2.8 | 2.4 | 1.2
SLLCVVCRPVSGGRALGGVP (DGI-2-20F-PP-B42; listed as Escherichia coli) | 21.5 | 2.4 | 2.5 | 1.0
SLSLYWDAQVGCEVFWGYCV (DGI-2-20R-3-C10; listed as Escherichia coli) | 14.7 | 2.2 | 2.1 | 1.0
SRELGKWGRLWQDWSSGNFS (DGI-2-20R-3-C11; listed as Escherichia coli) | 18.9 | 8.6 | 8.3 | 1.0
SRGMAEAQFSAWPVLAVFPL (DGI-2-20F-PP-H8; listed as Escherichia coli) | 32.4 | 1.6 | 1.9 | 0.9
